This data set can be described thus: xn = mol fraction of the nth substance listed.

One may read the viscosity as the resistance of a fluid to flow. With `CCCCCCCC[n+]1ccn(C)c1.F[P-](F)(F)(F)(F)F` + O, the viscosity (298 K, 101 kPa, x2 = 0.113) is reported as 506 mPa·s.

In turn, `CCCC[N+]1(C)CCCC1.O=S(=O)([N-]S(=O)(=O)C(F)(F)F)C(F)(F)F` + OCCOCCOCCOCCO gave a viscosity (298.15 K, 101 kPa, x2 = 0) of 70.5 mPa·s.

`CCCC[n+]1ccn(C)c1.[Cl-]` + OCCO: the electrical conductivity worked out at 0.966 S/m (303.15 K, 100 kPa, x1 = 0.333) and 1.06 S/m (303.15 K, 100 kPa, x1 = 0.5).

Regarding `CCCC[n+]1ccn(C)c1.F[P-](F)(F)(F)(F)F` + CC(C)=O, the electrical conductivity was found to be 0.84 S/m (296.15 K, 101 kPa, x2 = 0.3522); 3.91 S/m (296.15 K, 101 kPa, x2 = 0.8801); 2.99 S/m (296.15 K, 101 kPa, x2 = 0.9514); 1.73 S/m (296.15 K, 101 kPa, x2 = 0.9778).

`CCCC[NH3+].O=[N+]([O-])[O-]` + O showed a viscosity (303.15 K, 101 kPa, x2 = 0.3495) of 22.35 mPa·s; a viscosity (308.15 K, 101 kPa, x2 = 0.3495) of 19.25 mPa·s; a viscosity (313.15 K, 101 kPa, x2 = 0.3495) of 16.75 mPa·s.

Where the note is “298.15 K, 100 kPa, x2 = 0.9487”, `CCCC[n+]1ccn(C)c1.[Br-]` + O yielded a viscosity of 2.21 mPa·s.

`CCCC[n+]1ccn(C)c1.O=S(=O)([N-]S(=O)(=O)C(F)(F)F)C(F)(F)F` + CCCCn1cc[n+](C)c1.O=S(=O)([N-]S(=O)(=O)C(F)(F)F)c1ccc[cH-]1.[Fe+2].c1cc[cH-]c1 returned a viscosity (298.15 K, 100 kPa, x1 = 1) of 43.8 mPa·s.

Consider `CC[n+]1ccn(C)c1.[Cl-]` + CC#N, for which the viscosity (373 K, 100 kPa, x2 = 0) amounted to 36 mPa·s; the viscosity (373 K, 100 kPa, x2 = 0.158) stood at 19 mPa·s; the viscosity (373 K, 100 kPa, x2 = 0.472) is listed as 7 mPa·s; the viscosity (373 K, 100 kPa, x2 = 0.781) came to 3 mPa·s.

Take `CCCCCC[n+]1ccn(C)c1.F[P-](F)(F)(F)(F)F` + O: where the note is “298 K, 101 kPa, x2 = 0.1334”, the viscosity came out at 452 mPa·s.

What is called speed of sound is the propagation velocity of pressure waves in the medium. For the compound `CCCC[n+]1ccn(C)c1.[Cl-]` + OCC(O)CO, the speed of sound is, setting by setting: (298.15 K, 101 kPa, x2 = 0.333) 1838.8 m/s; (303.15 K, 101 kPa, x2 = 0.333) 1826.5 m/s; (313.15 K, 101 kPa, x2 = 0.333) 1802.4 m/s.

`C=CC[n+]1ccn(C)c1.O=S(=O)([N-]S(=O)(=O)C(F)(F)F)C(F)(F)F` + CCCO showed a viscosity (298.15 K, 100 kPa, x1 = 0.1) of 3.31 mPa·s; a viscosity (298.15 K, 100 kPa, x1 = 0.3) of 6.61 mPa·s; a viscosity (298.15 K, 100 kPa, x1 = 0.4) of 8.51 mPa·s; a viscosity (298.15 K, 100 kPa, x1 = 0.6) of 13.42 mPa·s; a viscosity (298.15 K, 100 kPa, x1 = 1) of 34.3 mPa·s.

Take `c1c[nH]cn1` + CC[n+]1ccn(C)c1.[Cl-]: the viscosity reads like this: (298.2 K, 100 kPa, x2 = 0.333) 47.5 mPa·s; (298.2 K, 100 kPa, x2 = 0.667) 198 mPa·s.

Take `CC[NH3+].O=[N+]([O-])[O-]` + CO: the viscosity (293.15 K, 101 kPa, x2 = 0) is listed as 44.9 mPa·s and the viscosity (293.15 K, 101 kPa, x2 = 0.4) is on record as 13.8 mPa·s.

In the case of `CCCCCCCC/C=C\CCCCCCCC(=O)O` + CC[N+](CC)(CC)CC.[Cl-], the viscosity is given as 202.2 mPa·s (298 K, 100 kPa, x2 = 0.25); 156.7 mPa·s (303.2 K, 100 kPa, x2 = 0.25); 41.7 mPa·s (333.2 K, 100 kPa, x2 = 0.25).

Take `CCCCCCCC[n+]1ccn(C)c1C.F[B-](F)(F)F` + CCCCCCCC[n+]1ccn(C)c1.F[P-](F)(F)(F)(F)F: the viscosity is, setting by setting: (303.15 K, 100 kPa, x2 = 0.5) 196 mPa·s; (313.15 K, 100 kPa, x2 = 0.5) 116 mPa·s; (323.15 K, 100 kPa, x2 = 0.5) 73.6 mPa·s; (333.15 K, 100 kPa, x2 = 0.5) 50.6 mPa·s; (343.15 K, 100 kPa, x2 = 0.5) 36.8 mPa·s; (353.15 K, 100 kPa, x2 = 0.5) 29.1 mPa·s.

For the setting “293.15 K, 101 kPa, x2 = 0.204”, `CCCCCCCCCC[n+]1ccn(C)c1.O=S(=O)([N-]S(=O)(=O)C(F)(F)F)C(F)(F)F` + O had a viscosity of 105 mPa·s. Under “295.15 K, 101 kPa, x2 = 0.204”, this compound showed an electrical conductivity of 0.15 S/m.

In the case of `O=c1cc[nH]cc1` + CCCC[n+]1ccn(C)c1.[Cl-], the viscosity is 302 mPa·s (293.15 K, 100 kPa, x1 = 0.333) and 261 mPa·s (293.15 K, 100 kPa, x1 = 0.5).

Take `CC[N+](CC)(CC)CCCS(=O)(=O)O.F[B-](F)(F)F` + O: the electrical conductivity reads like this: (298 K, 101 kPa, x1 = 0.0002) 0.475 S/m; (298 K, 101 kPa, x1 = 0.0004) 0.658 S/m; (298 K, 101 kPa, x1 = 0.001) 0.921 S/m; (298 K, 101 kPa, x1 = 0.0016) 1.45 S/m; (298 K, 101 kPa, x1 = 0.004) 2.04 S/m; (298 K, 101 kPa, x1 = 0.006) 2.14 S/m. For the same compound, the electrical conductivity reads like this: (298 K, 101 kPa, x1 = 0.008) 2.28 S/m; (298 K, 101 kPa, x1 = 0.01) 2.32 S/m.

For `CC[N+]1(C)CCCC1.[Br-]` + OCCCCCCO, the speed of sound is, setting by setting: (293.15 K, 101.3 kPa, x1 = 0.333) 1915.5 m/s; (298.15 K, 101.3 kPa, x1 = 0.333) 1903.4 m/s; (303.15 K, 101.3 kPa, x1 = 0.333) 1891.8 m/s; (308.15 K, 101.3 kPa, x1 = 0.333) 1879.3 m/s; (313.15 K, 101.3 kPa, x1 = 0.333) 1869.1 m/s.

`CCCCC[N+](CCCCC)(CCCCC)CCCCC.[Br-]` + CCCCCCCCCC(=O)O: the viscosity (318.15 K, 100 kPa, x1 = 0.333) is given as 178 mPa·s.

With `CCCC[n+]1ccn(C)c1.F[P-](F)(F)(F)(F)F` + CCCC[n+]1ccn(C)c1.O=S(=O)([N-]S(=O)(=O)C(F)(F)F)C(F)(F)F, the viscosity reads like this: (313.15 K, 100 kPa, x1 = 0.25) 36.48 mPa·s; (313.15 K, 100 kPa, x1 = 0.75) 73.2 mPa·s.

As for `OCC(F)(F)F` + COP(=O)([O-])OC.Cn1cc[n+](C)c1, the viscosity runs as follows: (298.15 K, 101 kPa, x2 = 0.1815) 6.5 mPa·s; (313.15 K, 101 kPa, x2 = 0.1815) 4.6 mPa·s; (313.15 K, 101 kPa, x2 = 0.4904) 24.5 mPa·s; (313.15 K, 101 kPa, x2 = 0.803) 70.5 mPa·s; (333.15 K, 101 kPa, x2 = 0.1815) 3.1 mPa·s; (333.15 K, 101 kPa, x2 = 0.4904) 12.8 mPa·s.

`CCCCCC[n+]1ccn(C)c1.O=S(=O)([N-]S(=O)(=O)C(F)(F)F)C(F)(F)F` + Cc1ccccc1: the electrical conductivity reads like this: (298.15 K, 100 kPa, x1 = 0.0811) 0.3 S/m; (298.15 K, 100 kPa, x1 = 0.1207) 0.4 S/m; (298.15 K, 100 kPa, x1 = 0.1708) 0.5 S/m; (298.15 K, 100 kPa, x1 = 0.236) 0.6 S/m; (298.15 K, 100 kPa, x1 = 0.3246) 0.6 S/m.

As for `CCCn1cc[n+](C)c1C.O=S(=O)([N-]S(=O)(=O)C(F)(F)F)C(F)(F)F` + OCCOCCOCCOCCO, the viscosity by setting is: (298.15 K, 101 kPa, x2 = 0) 85.6 mPa·s; (298.15 K, 101 kPa, x2 = 0.5) 56.1 mPa·s.

The compound `CCCCCC(=O)O` + CCCC[N+](CCCC)(CCCC)CCCC.[Cl-] displayed a viscosity (298 K, 100 kPa, x2 = 0.5) of 320 mPa·s.

On to `CC[n+]1ccn(C)c1.[Cl-]` + O, for which the viscosity worked out at 20 mPa·s (373 K, 100 kPa, x1 = 0.8) and 27 mPa·s (373 K, 100 kPa, x1 = 0.9524).

The compound `CC[N+](CC)(CC)CC.[Cl-]` + O came in with an electrical conductivity (323 K, 100 kPa, x1 = 0.2) of 4.1 S/m.

In the case of `CCCCCCCCCC[n+]1ccn(C)c1.[Cl-]` + O, the electrical conductivity (298.15 K, 101.3 kPa, x1 = 0.0171) was found to be 3.25 S/m.

For `CCCCCCCC(=O)[O-].CCCCCC[NH+](CCCCCC)CCCCCC` + O, the viscosity runs as follows: (298.15 K, 101 kPa, x1 = 0.3915) 15.42 mPa·s; (298.15 K, 101 kPa, x1 = 0.7748) 21.01 mPa·s.

In the case of `CCCCCCCC[n+]1ccn(C)c1.O=S(=O)([N-]S(=O)(=O)C(F)(F)C(F)(F)F)C(F)(F)C(F)(F)F` + O, for the setting “293.15 K, 101 kPa, x2 = 0.148”, the viscosity worked out at 167 mPa·s. This compound also had an electrical conductivity (295.15 K, 101 kPa, x2 = 0.148) of 0.13 S/m.

Take `CCn1cc[nH+]c1.O=S(=O)([N-]S(=O)(=O)C(F)(F)F)C(F)(F)F` + O: the viscosity by setting is: (297.55 K, 101 kPa, x1 = 0.359) 11.2 mPa·s; (297.55 K, 101 kPa, x1 = 0.667) 24.1 mPa·s; (297.55 K, 101 kPa, x1 = 0.8) 32.7 mPa·s; (297.55 K, 101 kPa, x1 = 0.941) 50.8 mPa·s; (297.55 K, 101 kPa, x1 = 1) 57.1 mPa·s.

The record behind these values is a compilation of properties of binary mixtures.
